Experimental data reported in US20190167771A1, “CONTROL ANGIOGENESIS BY REGULATING PHOSPHORYLATION OF SERYL-tRNA SYNTHETASE (SerRS)” (The Scripps Research Institute, priority 2016, published 2019).

Assays:
ATM/ATR kinases = assay: In vitro phosphorylation of recombinant SerRS by DNA-activated HEK293 nuclear extract (p-SQ immunoblot, 32P-labelling); assay type: biochemical, human; conditions: recombinant his6-tagged protein, p-SQ antibody and 32P-labelling
Description: FIGS. 1A-G show SerRS is important for hypoxia induced VEGFA expression and is phosphorylated by ATM and ATR kinases under hypoxia at serine 101 and serine 241 residues. In FIG. 1A, HEK293 cells were transfected with shRNAs targeting SerRS (sh-SerRS) or GlyRS (sh-GlyRS), or nonspecific control shRNA (sh-Control). 48 hours post-transfection, cells were cultured under hypoxia or normoxia conditions for 12 hours. Immunoblot of cell lysates with anti-SerRS, anti-GlyRS and anti-β-actin antibodies (left). VEGFA expression levels were measured by qRT-PCR (right) and relative induction of VEGFA transcription under hypoxia were plotted (right, inset) (means±SEM. from four independent experiments; *P<0.01, **P<0.0001). […] The conserved ATM/ATR substrate motif residues are underlined. In FIG. 1C, recombinant his6-tagged human SerRS or GlyRS were incubated with γ-^32P-ATP and HEK293 cell nuclear extracts which are treated with or without double-stranded DNA oligoes mimicking DNA damage stimuli to activate ATM/ATR/DNA-PK kinases. Recombinant proteins were then purified by Ni-NTA beads and subjected to SDS-PAGE and autoradiography. In FIG. 1D, recombinant his6-tagged two human aminoacyl tRNA synthetases (AARS): TyrRS and GlyRS, wild type SerRS, or SerRS mutants with single or double substitutions of serine 101 and serine 241 with alanine (S101A, S241A, and S101A/S241A) were treated as described in FIG. 1C and phosphorylated recombinant proteins were immunoblotted with antibodies as indicated after purification by Ni-NTA beads. In FIG. 1E, HEK293 cells were cultured under hypoxia for 3, 6, and 12 hours. Phosphorylated SerRS was immunoblotted with specific anti-p-SQ antibody after SerRS proteins were immunoprecipitated (IP). Cell lysates were immunoblotted with indicated antibodies for known ATM and ATR substrates (Chk1 and P53). In FIG. 1F, Flag-tagged wild type and mutant SerRS constructs were transfected into HEK293 cells. 24 hours post-transfection, cells were treated with hypoxia stress for 12 hours and ectopically expressed SerRS was then purified by immunoprecipitation (IP) using anti-Flag antibody and immunoblot (IB) with anti-P-SQ antibody and anti-Flag antibody. In FIG. 1G, HEK293 cells were transfected with siRNA against ATM (si-ATM) or ATR (si-ATR) and treated with hypoxia stress for 12 hours. Phosphorylated SerRS were immunoblotted as described in FIG. 1E. […]
For protein purification, human SerRS and its mutant genes were subeloned into pET-20b(+) plasmid (Novagen, Darmstadt, Germany) and overexpressed in E. coli. […] The purities of the recombinant proteins were assessed by Coomassie blue staining following 4-12% Mini Gel (ThermoFisher Scientific) electrophoresis. Protein concentrations were determined using Bradford protein assay (BioRad, Hercules, Calif., USA). […]

SIRT2 = assay: Co-immunoprecipitation of SerRS with SIRT2 in HEK293 cells; assay type: cell-based, human; conditions: V5-tagged SIRT2 and Flag-tagged SerRS co-transfected
Description: The cytosolic fractions (Cy), nuclear fractions (Nu), and the whole cell lysates (WCL) were examined by immunoblot with antibodies against SerRS, nuclear protein Lamin A/C, and cytosolic protein α-tubulin. In FIG. 8B, HEK293 cells were transfected with Flag-tagged SerRS^WT, SerRS^S101A/S241A, or SerRS^S101D/S241D and subjected to cell fractionation and IB with anti-Flag, anti-Lamin A/C, and anti-α-tubulin antibodies. In FIG. 8C, HEK293 cells were cultured under hypoxia for 6 hours and 12 hours. Cells were then lysed and subjected to IP with anti-SerRS antibody and IB with both anti-SerRS and anti-SIRT2 antibodies. In FIG. 8D, HEK293 cells were co-transfected with V5-tagged SIRT2 and Flag-tagged wild type or mutant SerRS. 24 hours post-transfection, cell lysates were subjected to IP with anti-Flag antibody and IB with anti-V5 antibody.
Cells were resuspended with lysis buffer (20 mM Tris-HCl (pH 7.5), 150 mM NaCl, 1 mM of EDTA, 1 mM EGTA, 1% Triton X-100, 2.5 mM sodium pyrophosphate, 1 mM beta-glycerophosphate, 1 mM Na3VO4, and protease inhibitor cocktail) on ice. Supernatants were incubated with indicated antibodies and protein-G-conjugated agarose beads (ThermoFisher Scientific) for at least 2 h. […]

VEGFA = VEGFA mRNA induction by 12-hour hypoxia in HEK293 cells (qRT-PCR); assay type: cell-based, human; conditions: hypoxia 12 hours
Description: In FIG. 3B, HEK293 cells were transiently transfected with SerRS^WT or SerRS^S101A/S241A constructs or empty control vector. 24 hours post-transfection, VEGFA mRNA induction by 12-hour-hypoxia treatment was monitored by qRT-PCR (means±SEM from four independent experiments; *P<0.05, **P<0.01, ***P<0.005). In FIG. 3C, HEK293 cells were transiently transfected with indicated constructs. 36 hours post-transfection, VEGFA mRNA induction by 12-hour-hypoxia treatment was monitored by qRT-PCR (means±SEM from four independent experiments; *P<0.0, **P<0.001, ***P<0.0001). The protein levels of SerRS, HIF-1α, and β-actin were examined by western blot (bottom).
Transient transfections were performed using Lipofectamine 2000 (ThermoFisher Scientific).
One gram of the total RNA from each sample was reversely transcribed to cDNA by M-MLV reverse transcriptase (Promega, Madison, Wis., USA). All real-time PCR reactions were performed using the StepOnePlus Real-Time PCR system (ThermoFisher Scientific) with SYBR Select Master Mix ThermoFisher Scientific). […] The PCR reaction program started at 95° C. for 10 min, followed by 45 cycles of 95° C. for 20 seconds and 60° C. for 1 min. Each experiment was carried out in triplicate. The VEGFA gene expression was normalized to that of β-ACTIN. Statistical analyses were performed with the software SigmaPlot (version 10.0). Student's t-test was used to analyze the changes between different groups.

[1] = overexpression of SerRS construct, 24 hours post-transfection

Row | Substance | level of phosphorylation in vitro (ATM/ATR kinases) | interaction with SIRT2 (SIRT2) | VEGFA induction under hypoxia (VEGFA; SerRS construct expressed while HIF is knocked down by shRNA (shHIF)) | VEGFA induction under hypoxia (VEGFA; [1])
1 | SerRS^S101A/S241A: phosphorylation-deficient human SerRS double mutant, serine 101 and 241 to alanine, SEQ ID NO: 4 (mouse version in matrigel assay) | almost had no phosphorylation | as strong as with SerRS^WT | completely inhibited VEGFA induction | significantly suppressed VEGFA induction
2 | SerRS^S101D/S241D: SerRS with double substitutions of S101 and S241 with aspartic acid, mimics the phosphorylated SerRS | – | as strong as with SerRS^WT | – | –
3 | SerRS^WT: wildtype human seryl-tRNA synthetase protein, SEQ ID NO: 1 (mouse wild type used in the 3B11 matrigel assay) | robust phosphorylation | – | – | had no effect
